From ChEMBL document CHEMBL4270607, “Identification of crizotinib derivatives as potent SHIP2 inhibitors for the treatment of Alzheimer's disease” (Eur J Med Chem, 2018)
Activity calls are given as the source filed them. No cut-off for these calls is given here.

How the values were obtained:
[1] = target: T1, Phosphatidylinositol 3,4,5-trisphosphate 5-phosphatase 2 (Mus musculus) (UniProt Q6P549); experiment: Inhibition of SHIP2 in mouse HT22 cells assessed as decrease in PI(3,4)P2 production at 10 uM after 24 hrs by mKate2-TAPP1-PH based fluorescence imaging method; assay type: cell-based
T1 sequence (whole entry): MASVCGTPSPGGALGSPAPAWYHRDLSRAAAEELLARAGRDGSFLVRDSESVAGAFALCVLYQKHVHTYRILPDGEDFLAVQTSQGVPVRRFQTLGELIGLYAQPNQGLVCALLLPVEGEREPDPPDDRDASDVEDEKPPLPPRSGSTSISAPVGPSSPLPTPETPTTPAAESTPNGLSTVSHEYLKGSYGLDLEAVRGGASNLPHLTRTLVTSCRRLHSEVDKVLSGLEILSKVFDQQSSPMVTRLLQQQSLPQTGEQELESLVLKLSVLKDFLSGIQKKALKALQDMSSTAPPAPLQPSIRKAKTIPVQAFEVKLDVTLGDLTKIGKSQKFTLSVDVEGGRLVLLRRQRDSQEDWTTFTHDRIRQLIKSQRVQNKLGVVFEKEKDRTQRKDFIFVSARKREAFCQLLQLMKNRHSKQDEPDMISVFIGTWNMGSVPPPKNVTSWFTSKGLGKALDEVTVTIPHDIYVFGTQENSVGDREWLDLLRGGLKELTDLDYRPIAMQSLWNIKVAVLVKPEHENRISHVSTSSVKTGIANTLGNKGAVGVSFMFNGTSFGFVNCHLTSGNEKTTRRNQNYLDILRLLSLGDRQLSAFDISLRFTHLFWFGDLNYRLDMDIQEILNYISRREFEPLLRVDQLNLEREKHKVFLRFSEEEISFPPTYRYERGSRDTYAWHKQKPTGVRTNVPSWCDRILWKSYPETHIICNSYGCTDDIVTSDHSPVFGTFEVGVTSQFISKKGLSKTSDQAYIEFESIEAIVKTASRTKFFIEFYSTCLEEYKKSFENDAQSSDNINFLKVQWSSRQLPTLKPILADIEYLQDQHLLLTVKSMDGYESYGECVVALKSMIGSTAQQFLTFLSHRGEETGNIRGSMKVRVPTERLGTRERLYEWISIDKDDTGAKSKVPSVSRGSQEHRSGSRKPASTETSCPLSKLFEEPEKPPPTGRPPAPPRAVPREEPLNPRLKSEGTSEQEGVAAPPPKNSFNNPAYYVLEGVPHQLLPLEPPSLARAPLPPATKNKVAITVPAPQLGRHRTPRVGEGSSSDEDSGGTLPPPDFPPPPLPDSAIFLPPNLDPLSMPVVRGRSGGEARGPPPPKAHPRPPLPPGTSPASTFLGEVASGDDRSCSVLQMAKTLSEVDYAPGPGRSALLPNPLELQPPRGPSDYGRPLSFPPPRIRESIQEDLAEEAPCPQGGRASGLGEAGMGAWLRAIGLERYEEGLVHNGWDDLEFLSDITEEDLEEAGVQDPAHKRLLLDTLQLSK

[2] = target: Glycogen synthase kinase-3 beta (Mus musculus) (UniProt Q9WV60); experiment: Inhibition of amyloid beta (1 to 42)-induced GSK3beta activation in mouse HT22 cells assessed as increase in GSK3beta phosphorylation at Ser9 residues at 10 uM after 24 hrs by ELISA; assay type: cell-based
[3] = Drug uptake in blood of Sprague-Dawley rat at 5 mg/kg, iv measured at 1 hr by LC-MS/MS analysis; assay type: ADME, organism-based; details: read-out: Drug uptake
[4] = Cmax in Sprague-Dawley rat at 10 mg/kg, po administered as single dose by LC-MS/MS analysis; assay type: ADME, organism-based; set-up: dose 10 mg/kg, route oral; details: in vivo
[5] = AUC (0 to t) in Sprague-Dawley rat at 2 mg/kg, iv administered as single dose by LC-MS/MS analysis; assay type: ADME, organism-based; details: in vivo
[6] = Half life in Sprague-Dawley rat at 10 mg/kg, po administered as single dose by LC-MS/MS analysis; assay type: ADME, organism-based; details: in vivo
[7] = Drug uptake in brain of Sprague-Dawley rat at 5 mg/kg, iv measured at 0.5 hrs by LC-MS/MS analysis; assay type: ADME, organism-based; details: read-out: Drug uptake
[8] = Half life in Sprague-Dawley rat at 2 mg/kg, iv administered as single dose by LC-MS/MS analysis; assay type: ADME, organism-based; details: in vivo

Glycogen synthase kinase-3 beta (Mus musculus), sequence (Q9WV60 whole entry, looked up): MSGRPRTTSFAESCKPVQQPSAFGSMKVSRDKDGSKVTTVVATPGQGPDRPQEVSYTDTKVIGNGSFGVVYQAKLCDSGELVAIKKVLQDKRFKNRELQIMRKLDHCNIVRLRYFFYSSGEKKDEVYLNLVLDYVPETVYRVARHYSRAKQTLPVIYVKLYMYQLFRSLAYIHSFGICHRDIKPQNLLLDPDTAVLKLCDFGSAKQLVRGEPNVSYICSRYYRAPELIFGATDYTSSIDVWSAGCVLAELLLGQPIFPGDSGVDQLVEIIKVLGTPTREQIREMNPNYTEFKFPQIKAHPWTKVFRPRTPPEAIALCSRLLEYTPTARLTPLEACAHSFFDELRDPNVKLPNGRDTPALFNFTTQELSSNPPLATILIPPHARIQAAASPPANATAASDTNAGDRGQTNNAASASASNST

Row | Structure (SMILES) | inhibition [1] | inhibition [2] | concentration at 1 h [3] | Cmax [4] | AUC(0-t) [5] | half-life [6] | concentration at 0.5 h [7] | half-life [8]
1 | O=C(NCc1c(F)cccc1F)c1sccc1OCc1ccc(Cl)cc1Cl | Active | Active | – | – | – | – | – | –
2 | C[C@@H](Oc1cncc(-c2cnc(N)nc2)c1)c1c(Cl)ccc(F)c1Cl | Active | Active | 1180 ng/mL | 636 ng/mL | 1700 ng·h/mL | 1.53 h | 4510 ng/mL | 1.36 h
3 | N#Cc1ccc(-c2cncc(OCc3ccc(Cl)cc3Cl)c2)s1 | Active | – | – | – | – | – | – | –
